Among the data in BindingDB's records for doi:10.1016/j.bioorg.2017.04.012 (Cairo University, 2017) are IC50 values, retold here.

Test [1] concerns the target T1, Prostaglandin G/H synthase 1 (Ovis aries, UniProt P05979).
T1 sequence (P05979 whole entry): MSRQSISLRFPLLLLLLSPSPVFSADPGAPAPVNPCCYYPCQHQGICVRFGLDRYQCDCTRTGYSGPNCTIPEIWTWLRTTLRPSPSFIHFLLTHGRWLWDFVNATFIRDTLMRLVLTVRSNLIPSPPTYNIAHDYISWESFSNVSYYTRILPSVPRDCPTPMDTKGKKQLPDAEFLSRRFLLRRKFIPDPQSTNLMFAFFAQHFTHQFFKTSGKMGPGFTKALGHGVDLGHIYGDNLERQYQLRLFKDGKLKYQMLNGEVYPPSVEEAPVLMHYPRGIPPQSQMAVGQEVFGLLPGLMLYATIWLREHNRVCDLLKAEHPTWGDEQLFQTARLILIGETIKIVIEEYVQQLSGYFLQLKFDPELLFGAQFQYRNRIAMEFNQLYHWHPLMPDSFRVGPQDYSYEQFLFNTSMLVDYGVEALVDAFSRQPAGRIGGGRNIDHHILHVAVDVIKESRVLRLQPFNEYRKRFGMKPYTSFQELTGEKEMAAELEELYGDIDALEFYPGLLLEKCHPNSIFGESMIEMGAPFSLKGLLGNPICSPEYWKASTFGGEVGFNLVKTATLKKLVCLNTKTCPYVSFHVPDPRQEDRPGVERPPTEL
Put plainly: COX Inhibitor Screening Assay. The note with it: pH 8; 25 °C. How it is done: (§1) Dilute 3 mL of assay buffer concentrate with 27 mL of HPLC - grade water. This final assay buffer (0.1 M Tris-HCl, pH 8) should be used for dilution of heme and COX enzymes prior to assaying. This vial contains a solution of heme in dimethylsulphoxide. Dilute 88 μL of heme with 1.912 mL of diluted assay buffer prior to use. A vial contains a solution of ovine COX-1 and should be kept on ice when thawed. Dilute 200 μL of enzyme with 400 μL of diluted assay buffer and store on ice. A vial contains a solution of ovine COX-2 and should be kept on ice when thawed. Dilute 200 μL of enzyme with 400 μL of diluted assay buffer and store on ice. A vial contains a solution or arachidonic acid in ethanol. […] Use the prepared arachidonic acid solution within 30 min. A 20 μL aliquot will yield a final concentration of 100 μM in the wells. A vial contains 0.1 M potassium hydroxide (KOH). A vial contains a solution of TMPD. Background wells: add 160 μL of assay buffer, and 10 μL of heme to three wells. 100% Initial Activity wells: add 150 μL assay buffer, 10 μL of heme, and 10 μL of enzyme (either COX-1 or COX-2) to three wells. Inhibitor wells: add 150 μL of assay buffer, 10 μL of heme, and10 μL of enzyme (either COX-1 or COX-2) to three wells. Add 10 μL of inhibitor to the inhibitor wells and 10 μL of solvent (methanol, dimethylsulphoxide or ethanol) to the 100% Initial Activity wells and background wells, this process was repeated three times. Carefully shake the plate for a few seconds and incubate for five minutes at 25 °C. Add 20 μL of the colorimetric substratesolution to all the wells that you are using. Add 20 μL of arachidonic acid to all the wells you are using. Carefully shake the plate for few seconds and incubate for five minutes at 25 °C. Read the absorbance at 590 nm using a plate reader.

The target in test [2] is T2, Prostaglandin G/H synthase 2 (Ovis aries, UniProt P79208).
T2 sequence (P79208 whole entry): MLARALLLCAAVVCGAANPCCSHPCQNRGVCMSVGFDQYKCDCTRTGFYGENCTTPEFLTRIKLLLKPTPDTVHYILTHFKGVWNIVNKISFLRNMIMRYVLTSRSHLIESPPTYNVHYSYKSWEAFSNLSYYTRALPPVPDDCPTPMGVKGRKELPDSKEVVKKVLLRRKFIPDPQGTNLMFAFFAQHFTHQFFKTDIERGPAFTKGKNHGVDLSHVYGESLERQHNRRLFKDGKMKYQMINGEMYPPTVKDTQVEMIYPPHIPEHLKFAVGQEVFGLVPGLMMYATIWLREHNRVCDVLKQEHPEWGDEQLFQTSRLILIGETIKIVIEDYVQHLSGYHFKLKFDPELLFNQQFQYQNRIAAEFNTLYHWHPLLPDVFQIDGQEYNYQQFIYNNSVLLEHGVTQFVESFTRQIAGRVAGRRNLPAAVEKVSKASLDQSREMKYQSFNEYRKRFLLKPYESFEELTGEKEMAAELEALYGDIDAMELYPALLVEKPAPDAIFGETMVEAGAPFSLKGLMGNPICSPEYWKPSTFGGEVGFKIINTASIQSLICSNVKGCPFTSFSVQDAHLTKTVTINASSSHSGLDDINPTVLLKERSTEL
Put plainly: COX Inhibitor Screening Assay. The note with it: pH 8; 25 °C. On the procedure: as §1

By IC50 is commonly meant the concentration needed to halve the response being measured. On to `O=C1OC(c2cccnc2)=N/C1=C\c1cccnc1` [2-(pyridin-3-yl)-4-(pyridin-3-ylmethylene)oxazol-5(4H)-one (IIIg)], for which the half-inhibitory concentration (IC50) in test [1] was found to be 340 nM; in test [2], 75 nM.
With `O=C1NN(c2ccccc2)C(c2cccnc2)=N/C1=C/c1cccnc1` [2-Phenyl-3-(pyridin-3-yl)-5-(pyridin-3-ylmethylene)-1,2-dihydro-1,2,4-triazin-6(5H)-one (IVg)], the values for the half-maximal inhibitory concentration (IC50) in test [1] and in test [2] were 84 nM and 14 nM, respectively.
The corresponding values for `O=C1OC(c2cccnc2)=N/C1=C\c1ccccc1O` [4-(2-Hydroxybenzylidene)-2-(pyridin-3-yl)oxazol-5(4H)-one (IIIf)] are 440 nM and 85 nM.
The corresponding values for `CN(C)c1ccc(/C=C2/N=C(c3cccnc3)OC2=O)cc1` [4-(4-(Dimethylamino)benzylidene)-2-(pyridin-3-yl)oxazol-5(4H)-one (IIIe)] are 80 nM and 19 nM.
The corresponding values for `O=C1OC(c2cccnc2)=N/C1=C/c1ccc(Cl)cc1` [4-(4-Chlorobenzylidene)-2-(pyridin-3-yl)oxazol-5(4H)-one (IIIb)] are 450 nM and 106 nM.
Turning to `O=C1OC(c2cccnc2)=N/C1=C/c1ccc(O)cc1` [4-(4-Hydroxybenzylidene)-2-(pyridin-3-yl)oxazol-5(4H)-one (IIIc)], the 50% inhibitory concentration (IC50) in test [1] stood at 270 nM; in test [2] it was 24 nM.
The corresponding values for `COc1ccc(/C=C2/N=C(c3cccnc3)OC2=O)cc1` [4-(4-Methoxybenzylidene)-2-(pyridin-3-yl)oxazol-5(4H)-one (IIId)] are 210 nM and 59 nM.
The corresponding values for `O=C1OC(c2cccnc2)=N/C1=C\c1ccccc1` [4-Benzylidene-2-(pyridin-3-yl) oxazol-5(4H)-one (IIIa)] are 440 nM and 77 nM.
The corresponding values for `O=C1NN(c2ccccc2)C(c2cccnc2)=N/C1=C/c1ccccc1O` [5-(2-Hydroxybenzylidene)-2-phenyl-3-(pyridin-3-yl)-1,2-dihydro-1,2,4-triazin-6(5H)-one (IVf)] are 85 nM and 17 nM.
With `CN(C)c1ccc(/C=C2/N=C(c3cccnc3)N(c3ccccc3)NC2=O)cc1` [5-(4-(Dimethylamino)benzylidene)-2-phenyl-3-(pyridin-3-yl)-1,2-dihydro-1,2,4-triazin-6(5H)-one (IVe)], the IC50 came to 116 nM in test [1] and 19 nM in test [2].
The corresponding values for `O=C1NN(c2ccccc2)C(c2cccnc2)=N/C1=C/c1ccc(Cl)cc1` [5-(4-Chlorobenzylidene)-2-phenyl-3-(pyridin-3-yl)-1,2-dihydro-1,2,4-triazin-6(5H)-one (IVb)] are 160 nM and 34 nM.
On to `O=C1NN(c2ccccc2)C(c2cccnc2)=N/C1=C/c1ccc(O)cc1` [5-(4-Hydroxybenzylidene)-2-phenyl-3-(pyridin-3-yl)-1,2-dihydro-1,2,4-triazin-6(5H)-one (IVc)], for which the half-inhibitory concentration (IC50) in test [1] was 96 nM; in test [2], 19 nM.
`COc1ccc(/C=C2/N=C(c3cccnc3)N(c3ccccc3)NC2=O)cc1` [5-(4-Methoxybenzylidene)-2-phenyl-3-(pyridin-3-yl)-1,2-dihydro-1,2,4-triazin-6(5H)-one (IVd)] came in with a 50% inhibitory concentration (IC50) in test [1] of 108 nM.
Take `O=C1NN(c2ccccc2)C(c2cccnc2)=N/C1=C/c1ccccc1` [5-Benzylidene-2-phenyl-3-(pyridin-3-yl)-1,2-dihydro-1,2,4-triazin-6(5H)-one (IVa)]: the results for the half-maximal inhibitory concentration (IC50) in test [1] and in test [2] were 150 nM and 35 nM, respectively.
